Experimental data: PMC11173529, “Structure–Activity Relationship Studies in a Series of Xanthine Inhibitors of SLACK Potassium Channels” (Molecules, 2024)

Columns and labels:
Type in all cases: cell-based
[1] = target: T1, TASK-1 (Homo sapiens, UniProt O14649); assay: Tl+-flux selectivity panel in HEK-293 cells: TASK-1; conditions: HEK293, 10 µM test compound, relative to control bepridil, read-out: Percent Inhibition ± SEM
T1 construct: expressed in transfected cells; host or cells: HEK293
Protocol: (§1) With a handful of analogs that offered improved SLACK potency relative to hit compound 8, we next proceeded to investigate the ancillary pharmacology of such compounds, both with respect to other Slo family members as well as versus a spectrum of diverse ion channels (Table 5). Thus, we screened four compounds (32, 48, 70, and 71) at 10 µM in our in-house selectivity panel of Tl^+-flux assays in HEK-293 cells stably expressing the target of interest. […] Some valuable SAR was noted as well. […] Reduction of inhibition at Maxi-K α1/β4 also followed. This SAR will be important to bear in mind for continued optimization within this series. […] Of particular note is the lack of significant hERG activity in this series, as activity versus that counter-target has been an issue with other SLACK inhibitors.
(§2) Stably transfected monoclonal HEK293 cell lines expressing Slick, Maxi-K α1/β3, Maxi-K α1/β4, CaV3.2, GIRK 1/2, KV2.1, KV7.2, NaV1.7, and TASK-1 were generated as previously described. Stably transfected monoclonal HEK293 cell lines expressing hERG were generated as previously described. CHO-K1 cells expressing human Slack and disease-associated human Slack mutations, G288S and A934T, were generated by transfecting a PiggyBac TRE mammalian expression vector (VectorBuilder, Chicago, IL, USA) containing KCNT1. FuGENE 6 (Promega, Madison, WI, USA) transfection reagent and protocol, together with Opti-MEM (Thermo Fisher Scientific, Walkham, MA, USA), were utilized.
(§3) The Tl^+ flux assays were conducted as previously described with modifications optimized for individual cell lines as described below. Following removal of cell culture media, cells were loaded with Tl^+-sensitive dye loading solution containing Thallos-AM (ION Biosciences, San Marcos, TX, USA), 1.25 mM Probenecid, and 0.3% Pluronic F-127 (MilliporeSigma, Burlington, MA, USA), in assay buffer comprised of Hanks Balanced Salt Solution (HBSS) (Thermo Fisher Scientific, Waltham, MA, USA) and 20 mM HEPES (Corning, Corning, NY, USA) at room temperature for one-hour. Dye loading solution was replaced with 20 μL/well of assay buffer prior to assaying. Cell plates were then loaded onto a Panoptic kinetic imaging plate reader (WaveFront Biosciences, Franklin, TN, USA). Data were acquired at 5 Hz (excitation 482 ± 35 nm, emission 536 ± 40 nm) for 10 s, at which time 20 μL/well of test compounds in assay buffer at 2-fold above the desired final concentration was added and allowed to incubate for 120 s. Next, 10 μL/well of Tl^+ stimulus buffer (129 mM Na gluconate, 1.2 mM CaSO4, 1 MgSO4, 1 mM Na2HPO4, 4.17 mM NaHCO3, 5.56 mM glucose, 2.5 mM Tl2SO4, and 10 mM HEPES pH 7.3) was added. Imaging was concluded after an additional 120 s.

[2] = target: T2, hERG (Homo sapiens, UniProt Q12809); assay: Tl+-flux selectivity panel in HEK-293 cells: hERG; conditions: HEK-293 cells stably expressing hERG, 10 µM test compound, relative to control bepridil, read-out: Percent Inhibition ± SEM
T2 construct: expressed in transfected cells; host or cells: HEK293
Protocol: as §1, §2, §3

[3] = target: T3, KV2.1 (Homo sapiens, UniProt Q14721); assay: Tl+-flux selectivity panel in HEK-293 cells: KV2.1; conditions: HEK293, 10 µM test compound, relative to control guangxitoxin 1E, read-out: Percent Inhibition ± SEM
T3 construct: expressed in transfected cells; host or cells: HEK293
T3 sequence (Q14721 1-858): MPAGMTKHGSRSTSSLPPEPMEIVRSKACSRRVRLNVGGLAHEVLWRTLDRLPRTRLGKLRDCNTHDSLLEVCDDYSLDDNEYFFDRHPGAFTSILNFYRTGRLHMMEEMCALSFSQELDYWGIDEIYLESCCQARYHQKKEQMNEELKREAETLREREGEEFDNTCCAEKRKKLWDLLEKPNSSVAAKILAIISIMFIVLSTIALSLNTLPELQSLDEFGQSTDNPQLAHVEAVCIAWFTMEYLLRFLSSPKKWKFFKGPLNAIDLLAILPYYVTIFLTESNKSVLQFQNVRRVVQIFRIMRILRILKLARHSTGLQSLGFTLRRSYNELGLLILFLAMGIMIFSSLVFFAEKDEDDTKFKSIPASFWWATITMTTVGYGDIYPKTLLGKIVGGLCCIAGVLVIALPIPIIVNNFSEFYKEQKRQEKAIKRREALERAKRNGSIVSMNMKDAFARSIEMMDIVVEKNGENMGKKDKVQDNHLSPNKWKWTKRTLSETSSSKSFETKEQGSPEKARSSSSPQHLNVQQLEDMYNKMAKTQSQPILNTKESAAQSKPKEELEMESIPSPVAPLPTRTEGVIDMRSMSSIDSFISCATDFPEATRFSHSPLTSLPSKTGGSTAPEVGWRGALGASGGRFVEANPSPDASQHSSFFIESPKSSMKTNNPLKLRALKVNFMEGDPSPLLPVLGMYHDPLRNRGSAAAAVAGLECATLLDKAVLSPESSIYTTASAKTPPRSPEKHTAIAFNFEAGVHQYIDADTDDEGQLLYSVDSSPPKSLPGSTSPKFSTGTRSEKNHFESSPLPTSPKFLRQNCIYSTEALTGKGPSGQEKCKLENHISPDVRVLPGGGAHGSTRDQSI
Protocol: as §1, §2, §3

[4] = target: T4, Maxi-K α1/β4 (Homo sapiens, UniProt Q12791); assay: Tl+-flux selectivity panel in HEK-293 cells: Maxi-K α1/β4; conditions: HEK293, 10 µM test compound, relative to control paxilline, read-out: Percent Inhibition ± SEM
T4 construct: expressed in transfected cells; host or cells: HEK293
Protocol: as §1, §2, §3

[5] = target: T5, KV7.2 (Homo sapiens, UniProt O43526); assay: Tl+-flux selectivity panel in HEK-293 cells: KV7.2; conditions: HEK293, 10 µM test compound, relative to control XE991, read-out: Percent Inhibition ± SEM
T5 construct: expressed in transfected cells; host or cells: HEK293
Protocol: as §1, §2, §3

[6] = target: T6, CaV3.2 (Homo sapiens, UniProt O95180); assay: Tl+-flux selectivity panel in HEK-293 cells: CaV3.2; conditions: HEK293, 10 µM test compound, relative to control bepridil, read-out: Percent Inhibition ± SEM
T6 construct: expressed in transfected cells; host or cells: HEK293
Protocol: as §1, §2, §3

T6 sequence (O95180 whole entry): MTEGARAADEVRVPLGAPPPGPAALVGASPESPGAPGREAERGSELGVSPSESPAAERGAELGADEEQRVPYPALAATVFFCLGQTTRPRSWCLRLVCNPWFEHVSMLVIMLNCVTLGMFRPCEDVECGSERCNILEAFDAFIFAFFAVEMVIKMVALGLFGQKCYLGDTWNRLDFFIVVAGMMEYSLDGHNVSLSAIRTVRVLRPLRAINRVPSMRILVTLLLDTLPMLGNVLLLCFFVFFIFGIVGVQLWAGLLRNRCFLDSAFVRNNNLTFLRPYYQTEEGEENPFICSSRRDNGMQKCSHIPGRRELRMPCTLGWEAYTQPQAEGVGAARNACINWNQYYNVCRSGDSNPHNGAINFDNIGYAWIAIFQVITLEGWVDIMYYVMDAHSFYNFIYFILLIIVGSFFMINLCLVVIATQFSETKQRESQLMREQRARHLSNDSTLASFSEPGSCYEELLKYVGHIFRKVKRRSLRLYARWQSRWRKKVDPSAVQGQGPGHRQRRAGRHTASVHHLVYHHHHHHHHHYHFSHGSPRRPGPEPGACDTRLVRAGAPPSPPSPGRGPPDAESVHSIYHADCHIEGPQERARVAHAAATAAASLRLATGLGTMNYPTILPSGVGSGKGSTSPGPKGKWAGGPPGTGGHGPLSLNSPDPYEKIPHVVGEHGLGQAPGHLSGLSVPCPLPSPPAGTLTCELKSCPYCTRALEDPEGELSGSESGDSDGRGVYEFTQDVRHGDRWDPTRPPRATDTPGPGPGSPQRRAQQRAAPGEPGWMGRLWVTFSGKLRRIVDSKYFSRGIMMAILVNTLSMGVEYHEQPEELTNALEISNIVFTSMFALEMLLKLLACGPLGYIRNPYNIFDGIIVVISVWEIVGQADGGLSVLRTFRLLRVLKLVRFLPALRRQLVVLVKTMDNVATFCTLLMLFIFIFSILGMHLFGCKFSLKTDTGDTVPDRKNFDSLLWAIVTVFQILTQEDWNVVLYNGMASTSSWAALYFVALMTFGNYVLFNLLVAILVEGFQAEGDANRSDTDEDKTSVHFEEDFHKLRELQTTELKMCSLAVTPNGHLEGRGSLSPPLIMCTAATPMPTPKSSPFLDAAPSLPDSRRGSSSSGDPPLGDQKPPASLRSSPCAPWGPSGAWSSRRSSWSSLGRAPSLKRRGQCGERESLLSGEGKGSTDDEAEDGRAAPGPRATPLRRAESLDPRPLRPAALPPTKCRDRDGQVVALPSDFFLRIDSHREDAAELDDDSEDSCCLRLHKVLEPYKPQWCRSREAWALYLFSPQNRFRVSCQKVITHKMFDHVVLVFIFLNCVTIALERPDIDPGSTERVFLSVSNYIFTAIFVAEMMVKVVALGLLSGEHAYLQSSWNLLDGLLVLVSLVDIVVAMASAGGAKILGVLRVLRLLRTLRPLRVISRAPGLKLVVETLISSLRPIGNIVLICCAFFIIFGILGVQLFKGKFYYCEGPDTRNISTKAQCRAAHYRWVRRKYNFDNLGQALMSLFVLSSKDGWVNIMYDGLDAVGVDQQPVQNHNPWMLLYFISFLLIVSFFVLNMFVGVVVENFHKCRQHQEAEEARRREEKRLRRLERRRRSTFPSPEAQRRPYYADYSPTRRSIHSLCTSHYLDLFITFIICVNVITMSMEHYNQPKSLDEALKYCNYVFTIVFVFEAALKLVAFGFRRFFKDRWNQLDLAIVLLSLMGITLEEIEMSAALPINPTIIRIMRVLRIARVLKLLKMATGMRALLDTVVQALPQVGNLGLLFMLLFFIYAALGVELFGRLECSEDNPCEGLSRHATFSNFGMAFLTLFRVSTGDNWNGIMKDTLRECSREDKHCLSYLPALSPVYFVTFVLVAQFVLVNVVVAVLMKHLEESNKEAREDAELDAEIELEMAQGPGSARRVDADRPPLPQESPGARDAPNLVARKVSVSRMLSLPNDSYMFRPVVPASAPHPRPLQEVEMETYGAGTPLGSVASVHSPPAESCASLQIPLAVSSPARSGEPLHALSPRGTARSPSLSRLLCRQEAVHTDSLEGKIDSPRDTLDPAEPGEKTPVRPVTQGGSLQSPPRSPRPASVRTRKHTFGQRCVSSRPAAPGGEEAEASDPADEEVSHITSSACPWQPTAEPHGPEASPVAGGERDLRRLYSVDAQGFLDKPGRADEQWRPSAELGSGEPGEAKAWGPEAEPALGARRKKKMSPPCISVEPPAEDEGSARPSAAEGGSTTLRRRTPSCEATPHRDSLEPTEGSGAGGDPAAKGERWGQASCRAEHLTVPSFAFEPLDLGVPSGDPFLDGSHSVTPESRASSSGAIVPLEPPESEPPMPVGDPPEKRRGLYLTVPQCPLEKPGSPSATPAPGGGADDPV
T4 sequence (Q12791 whole entry): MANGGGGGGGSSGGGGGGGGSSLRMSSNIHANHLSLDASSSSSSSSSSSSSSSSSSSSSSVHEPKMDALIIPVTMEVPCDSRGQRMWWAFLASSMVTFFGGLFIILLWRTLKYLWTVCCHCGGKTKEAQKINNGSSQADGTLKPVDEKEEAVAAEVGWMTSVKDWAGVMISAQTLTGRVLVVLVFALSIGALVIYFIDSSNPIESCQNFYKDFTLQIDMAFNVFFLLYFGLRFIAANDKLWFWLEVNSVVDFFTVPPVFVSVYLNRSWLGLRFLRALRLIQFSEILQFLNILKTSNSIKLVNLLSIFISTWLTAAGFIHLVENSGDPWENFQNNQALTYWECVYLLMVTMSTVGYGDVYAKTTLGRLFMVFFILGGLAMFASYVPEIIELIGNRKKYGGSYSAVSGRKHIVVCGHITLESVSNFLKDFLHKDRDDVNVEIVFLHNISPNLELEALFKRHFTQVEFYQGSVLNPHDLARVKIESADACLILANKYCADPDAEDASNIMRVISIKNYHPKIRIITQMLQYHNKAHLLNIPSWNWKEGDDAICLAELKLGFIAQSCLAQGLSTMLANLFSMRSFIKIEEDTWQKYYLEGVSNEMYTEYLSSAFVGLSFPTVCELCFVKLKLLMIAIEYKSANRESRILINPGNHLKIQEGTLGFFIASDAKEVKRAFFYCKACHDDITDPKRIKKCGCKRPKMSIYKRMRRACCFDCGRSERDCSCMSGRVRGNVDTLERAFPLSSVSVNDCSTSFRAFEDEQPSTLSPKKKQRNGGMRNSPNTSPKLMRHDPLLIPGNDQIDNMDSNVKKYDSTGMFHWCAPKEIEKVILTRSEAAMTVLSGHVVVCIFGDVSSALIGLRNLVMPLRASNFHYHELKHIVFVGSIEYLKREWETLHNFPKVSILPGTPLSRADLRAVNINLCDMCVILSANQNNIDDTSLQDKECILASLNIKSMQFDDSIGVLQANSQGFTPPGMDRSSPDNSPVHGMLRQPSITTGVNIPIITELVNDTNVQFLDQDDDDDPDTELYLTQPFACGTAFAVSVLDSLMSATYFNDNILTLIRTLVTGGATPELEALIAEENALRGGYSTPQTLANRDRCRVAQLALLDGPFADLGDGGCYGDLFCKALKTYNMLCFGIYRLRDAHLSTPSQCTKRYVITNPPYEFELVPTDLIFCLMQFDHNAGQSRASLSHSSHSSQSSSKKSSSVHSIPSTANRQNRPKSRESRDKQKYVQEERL
T4 sequence (Q86W47 whole entry partner): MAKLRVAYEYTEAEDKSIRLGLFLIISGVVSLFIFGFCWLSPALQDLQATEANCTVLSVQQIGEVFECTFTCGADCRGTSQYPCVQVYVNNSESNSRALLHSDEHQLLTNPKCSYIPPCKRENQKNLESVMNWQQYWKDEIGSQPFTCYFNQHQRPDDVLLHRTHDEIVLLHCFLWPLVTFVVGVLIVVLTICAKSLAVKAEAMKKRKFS
T2 sequence (Q12809 whole entry): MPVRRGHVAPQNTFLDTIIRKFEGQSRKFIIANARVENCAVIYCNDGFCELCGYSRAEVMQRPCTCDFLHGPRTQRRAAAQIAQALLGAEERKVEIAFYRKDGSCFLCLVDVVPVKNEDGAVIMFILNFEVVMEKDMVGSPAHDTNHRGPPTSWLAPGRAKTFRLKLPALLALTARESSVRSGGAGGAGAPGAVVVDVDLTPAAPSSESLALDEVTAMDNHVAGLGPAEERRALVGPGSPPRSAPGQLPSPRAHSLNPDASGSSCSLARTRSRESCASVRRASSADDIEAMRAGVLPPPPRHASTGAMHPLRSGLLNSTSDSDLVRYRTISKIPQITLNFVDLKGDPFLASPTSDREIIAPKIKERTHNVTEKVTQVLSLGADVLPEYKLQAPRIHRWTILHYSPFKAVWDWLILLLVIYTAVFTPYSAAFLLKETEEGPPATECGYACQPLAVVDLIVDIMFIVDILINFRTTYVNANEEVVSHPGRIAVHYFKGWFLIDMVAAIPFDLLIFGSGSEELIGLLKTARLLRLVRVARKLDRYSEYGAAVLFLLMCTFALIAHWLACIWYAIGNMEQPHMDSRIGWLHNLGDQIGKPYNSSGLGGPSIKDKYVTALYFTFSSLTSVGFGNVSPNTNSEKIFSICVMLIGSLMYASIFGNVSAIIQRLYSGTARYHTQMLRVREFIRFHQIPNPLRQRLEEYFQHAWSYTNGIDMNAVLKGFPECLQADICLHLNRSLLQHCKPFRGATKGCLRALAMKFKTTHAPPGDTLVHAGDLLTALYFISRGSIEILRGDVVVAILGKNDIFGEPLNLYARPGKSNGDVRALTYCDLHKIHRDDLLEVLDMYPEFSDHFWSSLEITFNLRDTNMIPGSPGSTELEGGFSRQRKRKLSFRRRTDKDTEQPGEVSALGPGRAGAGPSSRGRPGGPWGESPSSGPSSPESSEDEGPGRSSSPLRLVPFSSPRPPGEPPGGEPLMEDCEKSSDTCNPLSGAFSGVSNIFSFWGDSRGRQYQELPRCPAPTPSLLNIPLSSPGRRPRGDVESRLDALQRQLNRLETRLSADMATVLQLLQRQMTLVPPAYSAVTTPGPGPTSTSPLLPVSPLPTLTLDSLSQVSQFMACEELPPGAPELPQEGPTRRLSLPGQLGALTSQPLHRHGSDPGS

| Structure (SMILES) | inhibition at 10 µM [1] [%] | inhibition at 120 s, 10 µM [2] [%] | inhibition at 10 µM [3] [%] | inhibition at 10 µM [4] [%] | inhibition at 10 µM [5] [%] | inhibition at 10 µM [6] [%] |
| --- | --- | --- | --- | --- | --- | --- |
| COc1cccc(Cn2c(=O)c3c(nc(N(C)Cc4ccccc4)n3C)n(C)c2=O)c1 [Analog 32] | 17 ± 2.3 | 4.6 ± 4.5 | 51 ± 1.5 | 48 ± 2 | 16 ± 2.2 | 18 ± 1.6 |
| CN(Cc1cccc(F)c1)c1nc2c(c(=O)n(Cc3ccccc3)c(=O)n2C)n1C [Analog 48] | 24 ± 2.3 | -2.8 ± 2.4 | 51 ± 1.2 | 42 ± 4.6 | 15 ± 2.3 | 17 ± 4.2 |
| CCCCN(Cc1ccccc1)c1nc2c(c(=O)n(Cc3ccccc3)c(=O)n2C)n1C [Analog 70] | 23 ± 2.9 | 22 ± 2 | 35 ± 1.3 | 8.5 ± 2.1 | 19 ± 0.2 | 16 ± 2.2 |
| Cn1c(N(Cc2ccccc2)CC2CC2)nc2c1c(=O)n(Cc1ccccc1)c(=O)n2C [Analog 71] | 4.9 ± 1.5 | 23 ± 4 | 33 ± 1.2 | 12 ± 3.9 | 14 ± 1.6 | 24 ± 3.6 |
